Patent publication US7074789B2, “Kinase inhibitors” (Amgen Inc., priority 1999, dated 2006)

Legend:
Format in all cases: biochemical
AKT = target: T1, AKT (Homo sapiens, UniProt Q9Y243); assay: Kinase inhibition assay (33P transfer), AKT; conditions: Table 2, kinase inhibition class; read-out: AKT3-1
T1 construct: Kinases are expressed as either kinase domains or full length constructs; made in house
In short: (§1)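 Kinase domains or full-length kinases, GST- or His-tagged and expressed in E. coli or baculovirus/High Five cells, transferred 33PO4 from ATP onto plate-bound poly(Glu,Tyr) 4:1 or poly(Arg,Ser) 3:1. After incubation, plates were washed with 0.5% phosphoric acid and counted by liquid scintillation.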

Zap-70 = target: T2, Zap-70 (Homo sapiens, UniProt P43403); assay: Kinase inhibition assay (33P transfer), Zap-70; conditions: read-out: Zap-1
T2 construct: Kinases are expressed as either kinase domains or full length constructs; made in house
T2 sequence (P43403 1-619): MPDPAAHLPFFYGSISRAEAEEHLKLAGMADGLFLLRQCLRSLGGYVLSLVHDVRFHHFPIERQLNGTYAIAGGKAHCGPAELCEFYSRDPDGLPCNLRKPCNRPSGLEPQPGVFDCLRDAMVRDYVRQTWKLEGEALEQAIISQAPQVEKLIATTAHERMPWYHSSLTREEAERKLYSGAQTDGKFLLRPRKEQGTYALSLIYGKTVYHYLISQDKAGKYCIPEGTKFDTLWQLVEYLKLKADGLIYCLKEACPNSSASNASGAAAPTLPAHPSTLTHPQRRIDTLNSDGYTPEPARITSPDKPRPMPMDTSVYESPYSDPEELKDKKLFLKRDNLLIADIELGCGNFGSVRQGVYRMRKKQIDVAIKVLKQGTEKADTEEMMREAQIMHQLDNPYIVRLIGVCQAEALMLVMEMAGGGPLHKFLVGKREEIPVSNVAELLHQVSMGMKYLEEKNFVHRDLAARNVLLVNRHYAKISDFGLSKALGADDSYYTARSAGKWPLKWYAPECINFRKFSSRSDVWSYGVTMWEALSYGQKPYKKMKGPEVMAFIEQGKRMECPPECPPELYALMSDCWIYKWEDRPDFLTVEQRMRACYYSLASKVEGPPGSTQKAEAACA
In short: as §1

Lck = target: T3, Lck (Homo sapiens, UniProt P06239); assay: Kinase inhibition assay (33P transfer), Lck; conditions: read-out: Lck-1
T3 construct: Kinases are expressed as either kinase domains or full length constructs; made in house
In short: as §1

Kdr = target: T4, Kdr (Homo sapiens, UniProt P35968); assay: Kinase inhibition assay (33P transfer), Kdr; conditions: read-out: KDR-1
T4 construct: Kinases are expressed as either kinase domains or full length constructs; made in house
In short: as §1

PDGFRB = target: T5, PDGFRB (Homo sapiens, UniProt P09619); assay: Kinase inhibition assay (33P transfer), PDGFRB; conditions: read-out: PDGFRB-1
T5 construct: Kinases are expressed as either kinase domains or full length constructs; made in house

IGFR-1 = target: T6, IGFR-1 (Homo sapiens, UniProt P08069); assay: Kinase inhibition assay, IGFR-1 (Table 2); conditions: Table 2, kinase inhibition class
T6 construct: Kinases are expressed as either kinase domains or full length constructs; made in house

c-Met = target: T7, c-Met (Homo sapiens, UniProt P08581); assay: Kinase inhibition assay (33P transfer), c-Met; conditions: Table 2, kinase inhibition class; read-out: Met-1
T7 construct: Kinases are expressed as either kinase domains or full length constructs; made in house
In short: (§2)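 Using immobilised substrate copolymers (poly(Glu,Tyr) 4:1; poly(Arg,Ser) 3:1) and [33P]ATP, purified fusion kinases were allowed to react; plates were then rinsed in 0.5% phosphoric acid and counted in a scintillation detector. Half-maximal inhibition of label transfer defines IC50.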

ErbB2 = target: T8, ErbB2 (Homo sapiens, UniProt P04626); assay: Kinase inhibition assay (33P transfer), ErbB2; conditions: read-out: ErbB2-2
T8 construct: Kinases are expressed as either kinase domains or full length constructs; made in house
In short: as §2

Itk = target: T9, Itk (Homo sapiens, UniProt Q08881); assay: Kinase inhibition assay (33P transfer), Itk; conditions: read-out: Itk-1
T9 construct: Kinases are expressed as either kinase domains or full length constructs; made in house
T9 sequence (Q08881 1-620): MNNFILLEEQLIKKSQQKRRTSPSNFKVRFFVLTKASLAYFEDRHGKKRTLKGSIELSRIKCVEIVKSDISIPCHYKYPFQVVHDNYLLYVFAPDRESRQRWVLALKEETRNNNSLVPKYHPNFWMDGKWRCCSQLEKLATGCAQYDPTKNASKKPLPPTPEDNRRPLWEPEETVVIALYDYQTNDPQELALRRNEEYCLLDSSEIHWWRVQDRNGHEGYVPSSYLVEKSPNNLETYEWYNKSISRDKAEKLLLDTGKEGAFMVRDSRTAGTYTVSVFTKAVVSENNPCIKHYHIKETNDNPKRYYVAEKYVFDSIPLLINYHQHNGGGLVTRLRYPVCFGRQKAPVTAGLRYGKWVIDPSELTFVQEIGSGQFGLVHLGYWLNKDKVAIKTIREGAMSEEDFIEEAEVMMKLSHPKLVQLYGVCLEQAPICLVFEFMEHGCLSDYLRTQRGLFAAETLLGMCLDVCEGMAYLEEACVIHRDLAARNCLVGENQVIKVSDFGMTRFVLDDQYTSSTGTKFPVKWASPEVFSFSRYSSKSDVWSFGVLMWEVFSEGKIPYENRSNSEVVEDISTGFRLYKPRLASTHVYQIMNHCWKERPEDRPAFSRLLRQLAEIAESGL
In short: as §2

EGFR = target: T10, EGFR (Homo sapiens, UniProt P00533); assay: Kinase inhibition assay (33P transfer), EGFR; conditions: Table 2, kinase inhibition class; read-out: EGFR-1
T10 construct: Kinases are expressed as either kinase domains or full length constructs; made in house
In short: as §2

T3 sequence (P06239 whole entry, species assumed, the tested form may be a part): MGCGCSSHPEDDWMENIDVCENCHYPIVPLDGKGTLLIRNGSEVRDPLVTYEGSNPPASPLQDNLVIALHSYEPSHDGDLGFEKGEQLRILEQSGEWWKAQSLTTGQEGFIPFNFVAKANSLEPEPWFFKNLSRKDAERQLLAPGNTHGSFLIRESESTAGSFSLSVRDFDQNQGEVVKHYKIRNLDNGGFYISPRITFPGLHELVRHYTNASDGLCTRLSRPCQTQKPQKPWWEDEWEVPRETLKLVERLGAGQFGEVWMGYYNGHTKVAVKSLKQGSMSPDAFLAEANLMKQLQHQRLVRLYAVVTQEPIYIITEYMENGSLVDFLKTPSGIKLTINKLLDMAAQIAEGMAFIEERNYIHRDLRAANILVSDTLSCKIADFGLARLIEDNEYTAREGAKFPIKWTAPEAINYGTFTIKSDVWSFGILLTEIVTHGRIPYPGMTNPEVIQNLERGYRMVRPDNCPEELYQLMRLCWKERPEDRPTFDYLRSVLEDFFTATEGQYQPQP
T10 sequence (P00533 25-1210, species assumed): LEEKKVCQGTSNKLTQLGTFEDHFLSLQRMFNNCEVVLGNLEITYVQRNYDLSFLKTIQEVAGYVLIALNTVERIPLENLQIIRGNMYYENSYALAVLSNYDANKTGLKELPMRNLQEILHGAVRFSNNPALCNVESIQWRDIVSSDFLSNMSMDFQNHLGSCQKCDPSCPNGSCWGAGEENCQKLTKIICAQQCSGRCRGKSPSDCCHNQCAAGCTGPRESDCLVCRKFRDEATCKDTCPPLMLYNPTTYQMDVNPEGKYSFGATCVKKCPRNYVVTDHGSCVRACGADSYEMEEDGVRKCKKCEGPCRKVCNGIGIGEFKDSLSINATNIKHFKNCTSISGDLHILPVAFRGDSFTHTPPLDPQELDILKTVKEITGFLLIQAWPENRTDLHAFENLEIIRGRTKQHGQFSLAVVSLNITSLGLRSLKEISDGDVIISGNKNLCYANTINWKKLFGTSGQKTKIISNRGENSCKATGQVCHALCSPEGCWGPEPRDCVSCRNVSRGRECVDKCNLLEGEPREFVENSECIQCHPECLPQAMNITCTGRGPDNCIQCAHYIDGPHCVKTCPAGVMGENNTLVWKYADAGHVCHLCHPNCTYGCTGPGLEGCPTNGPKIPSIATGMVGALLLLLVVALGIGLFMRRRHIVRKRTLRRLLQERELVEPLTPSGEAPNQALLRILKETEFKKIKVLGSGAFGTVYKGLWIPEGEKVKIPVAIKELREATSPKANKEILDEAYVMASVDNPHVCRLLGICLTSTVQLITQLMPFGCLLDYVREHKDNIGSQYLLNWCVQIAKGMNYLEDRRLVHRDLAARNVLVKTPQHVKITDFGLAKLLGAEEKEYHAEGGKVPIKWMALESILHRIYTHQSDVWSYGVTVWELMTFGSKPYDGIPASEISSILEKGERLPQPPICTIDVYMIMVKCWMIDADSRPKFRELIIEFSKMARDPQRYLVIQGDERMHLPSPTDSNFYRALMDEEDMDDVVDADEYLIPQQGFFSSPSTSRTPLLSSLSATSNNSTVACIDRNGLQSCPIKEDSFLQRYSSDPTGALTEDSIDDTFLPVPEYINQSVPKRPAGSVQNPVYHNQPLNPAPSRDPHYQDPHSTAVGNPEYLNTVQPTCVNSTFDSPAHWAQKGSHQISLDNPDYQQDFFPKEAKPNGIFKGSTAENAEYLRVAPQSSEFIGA
T7 sequence (P08581 25-1390): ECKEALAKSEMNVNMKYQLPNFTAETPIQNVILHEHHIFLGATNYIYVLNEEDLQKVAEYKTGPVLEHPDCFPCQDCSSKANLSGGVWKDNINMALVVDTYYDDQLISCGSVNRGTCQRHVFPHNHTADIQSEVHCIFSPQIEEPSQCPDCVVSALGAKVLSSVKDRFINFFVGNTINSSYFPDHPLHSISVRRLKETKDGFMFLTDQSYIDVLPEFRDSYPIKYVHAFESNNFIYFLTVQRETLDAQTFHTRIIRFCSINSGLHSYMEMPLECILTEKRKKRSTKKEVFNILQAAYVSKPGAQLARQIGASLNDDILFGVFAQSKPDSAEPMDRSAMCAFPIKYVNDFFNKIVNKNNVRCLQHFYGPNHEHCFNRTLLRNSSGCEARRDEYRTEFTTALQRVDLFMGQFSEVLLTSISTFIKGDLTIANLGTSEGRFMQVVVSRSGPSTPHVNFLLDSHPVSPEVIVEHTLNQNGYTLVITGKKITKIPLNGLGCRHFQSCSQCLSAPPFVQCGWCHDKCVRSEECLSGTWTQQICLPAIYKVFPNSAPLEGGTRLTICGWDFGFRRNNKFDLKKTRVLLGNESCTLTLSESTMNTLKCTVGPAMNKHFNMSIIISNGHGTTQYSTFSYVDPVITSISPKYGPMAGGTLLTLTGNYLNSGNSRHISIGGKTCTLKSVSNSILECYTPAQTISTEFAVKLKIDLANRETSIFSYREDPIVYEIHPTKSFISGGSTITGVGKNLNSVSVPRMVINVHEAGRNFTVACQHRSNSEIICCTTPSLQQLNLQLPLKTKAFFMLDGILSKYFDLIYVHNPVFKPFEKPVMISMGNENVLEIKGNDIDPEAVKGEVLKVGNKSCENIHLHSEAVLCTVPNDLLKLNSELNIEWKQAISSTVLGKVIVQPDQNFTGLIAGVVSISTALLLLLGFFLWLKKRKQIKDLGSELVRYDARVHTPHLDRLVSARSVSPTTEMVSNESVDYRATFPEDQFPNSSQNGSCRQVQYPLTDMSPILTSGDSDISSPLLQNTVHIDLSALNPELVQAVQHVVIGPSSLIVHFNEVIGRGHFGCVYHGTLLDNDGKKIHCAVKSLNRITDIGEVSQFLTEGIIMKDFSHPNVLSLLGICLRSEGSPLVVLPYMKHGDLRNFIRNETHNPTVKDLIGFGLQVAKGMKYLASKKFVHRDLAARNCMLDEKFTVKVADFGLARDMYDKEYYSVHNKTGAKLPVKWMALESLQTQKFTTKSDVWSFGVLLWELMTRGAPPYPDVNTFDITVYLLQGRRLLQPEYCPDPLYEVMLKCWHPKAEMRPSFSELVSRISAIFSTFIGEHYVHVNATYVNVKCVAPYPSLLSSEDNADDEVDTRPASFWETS
T5 sequence (P09619 33-1106, species assumed): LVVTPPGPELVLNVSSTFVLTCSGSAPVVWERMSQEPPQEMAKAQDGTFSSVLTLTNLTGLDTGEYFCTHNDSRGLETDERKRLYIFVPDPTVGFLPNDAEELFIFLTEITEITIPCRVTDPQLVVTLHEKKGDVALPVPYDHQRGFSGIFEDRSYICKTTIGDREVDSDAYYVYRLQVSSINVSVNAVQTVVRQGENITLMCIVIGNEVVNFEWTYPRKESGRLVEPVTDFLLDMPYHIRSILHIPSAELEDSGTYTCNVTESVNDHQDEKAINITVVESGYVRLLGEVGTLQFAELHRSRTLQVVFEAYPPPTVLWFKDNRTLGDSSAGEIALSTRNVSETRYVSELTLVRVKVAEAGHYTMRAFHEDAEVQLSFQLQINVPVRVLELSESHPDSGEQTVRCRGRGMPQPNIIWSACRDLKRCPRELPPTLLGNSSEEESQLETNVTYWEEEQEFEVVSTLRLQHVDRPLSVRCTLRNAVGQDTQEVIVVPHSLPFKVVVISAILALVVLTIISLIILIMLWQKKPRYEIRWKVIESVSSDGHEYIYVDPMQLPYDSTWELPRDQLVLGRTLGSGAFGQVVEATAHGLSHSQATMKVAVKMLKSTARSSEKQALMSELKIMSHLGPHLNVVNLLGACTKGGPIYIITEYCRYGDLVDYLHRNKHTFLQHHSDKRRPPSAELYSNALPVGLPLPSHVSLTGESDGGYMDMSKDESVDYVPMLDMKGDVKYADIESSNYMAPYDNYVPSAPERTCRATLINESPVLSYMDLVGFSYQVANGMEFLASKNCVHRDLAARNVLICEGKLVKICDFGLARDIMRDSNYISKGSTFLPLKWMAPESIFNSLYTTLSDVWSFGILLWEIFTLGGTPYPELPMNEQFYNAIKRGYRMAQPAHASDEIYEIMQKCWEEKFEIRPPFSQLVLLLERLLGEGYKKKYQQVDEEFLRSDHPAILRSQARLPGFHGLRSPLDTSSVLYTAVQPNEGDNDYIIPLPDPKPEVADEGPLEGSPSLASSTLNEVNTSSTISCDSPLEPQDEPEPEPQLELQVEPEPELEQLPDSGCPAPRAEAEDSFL
T1 sequence (Q9Y243 whole entry, the tested form may be a part): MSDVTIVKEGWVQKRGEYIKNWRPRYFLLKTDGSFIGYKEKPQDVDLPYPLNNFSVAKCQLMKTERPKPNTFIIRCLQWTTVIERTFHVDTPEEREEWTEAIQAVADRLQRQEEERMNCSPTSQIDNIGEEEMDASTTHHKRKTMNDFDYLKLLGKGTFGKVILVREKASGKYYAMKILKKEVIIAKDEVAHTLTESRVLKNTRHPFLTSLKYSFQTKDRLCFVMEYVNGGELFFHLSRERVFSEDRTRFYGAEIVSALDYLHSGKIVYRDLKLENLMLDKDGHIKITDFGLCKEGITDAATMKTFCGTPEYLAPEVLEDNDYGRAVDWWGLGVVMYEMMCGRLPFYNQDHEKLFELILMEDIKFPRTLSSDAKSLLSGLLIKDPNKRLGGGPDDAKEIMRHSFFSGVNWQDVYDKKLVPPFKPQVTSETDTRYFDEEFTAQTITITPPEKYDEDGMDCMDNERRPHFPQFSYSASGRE

SMILES | IC50 (AKT) [µM] | IC50 (Zap-70) [µM] | IC50 (Lck) [µM] | IC50 (Kdr) [µM] | IC50 (PDGFRB) [µM] | IC50 (IGFR-1) [µM] | IC50 (c-Met) [µM] | IC50 (ErbB2) [µM] | IC50 (Itk) [µM] | IC50 (EGFR) [µM]
COc1cc(Nc2ncnc(Nc3ccc(OCC(=O)Nc4ccccc4)cc3)n2)cc(OC)c1OC [Compound 623] | > 8.95 | > 8.95 | < 0.796 | 0.796 to 4.78 | < 0.796 | 0.796 to 4.78 | 6.96 to 8.95 | 0.796 to 4.78 | 0.796 to 4.78 | 0.796 to 4.78
COc1cc(Nc2ncnc(Nc3cccc(CC(=O)O)c3)n2)cc(OC)c1OC [Compound 624] | > 10.9 | > 10.9 | 0.972 to 5.83 | 5.83 to 8.51 | 0.972 to 5.83 | > 10.9 | > 10.9 | < 0.972 | > 10.9 | < 0.972
COc1cc(Nc2ncnc(Nc3cc(Cl)ccc3C)n2)cc(OC)c1OC [Compound 625] | > 11.2 | > 11.2 | < 0.995 | 0.995 to 5.97 | < 0.995 | 0.995 to 5.97 | > 11.2 | < 0.995 | > 11.2 | < 0.995
CCCN(CC1CC1)c1ncnc(Nc2cc(OC)c(OC)c(OC)c2)n1 [Compound 626] | > 12 | > 12 | 1.07 to 6.43 | 1.07 to 6.43 | 1.07 to 6.43 | > 12 | 1.07 to 6.43 | > 12 | 9.37 to 12 | 9.37 to 12
COc1ccc(Cl)cc1Nc1ncnc(Nc2cc(OC)c(OC)c(OC)c2)n1 [Compound 627] | > 10.8 | > 10.8 | < 0.957 | 0.957 to 5.74 | < 0.957 | < 0.957 | 8.38 to 10.8 | 0.957 to 5.74 | 0.957 to 5.74 | 0.957 to 5.74
COc1cc(Nc2ncnc(NCCc3ccccc3)n2)cc(OC)c1OC [Compound 628] | > 11.8 | > 11.8 | 1.05 to 6.29 | 6.29 to 9.18 | 1.05 to 6.29 | 1.05 to 6.29 | > 11.8 | > 11.8 | > 11.8 | 1.05 to 6.29
COc1cc(Nc2ncnc(Nc3ccc4c(c3)CCC4)n2)cc(OC)c1OC [Compound 629] | > 11.4 | 6.1 to 8.9 | < 1.02 | 1.02 to 6.1 | < 1.02 | < 1.02 | 6.1 to 8.9 | 1.02 to 6.1 | 1.02 to 6.1 | 1.02 to 6.1
COc1cc(Nc2ncnc(NCc3ccccc3)n2)cc(OC)c1OC [Compound 630] | > 12.2 | > 12.2 | 1.09 to 6.53 | 6.53 to 9.53 | 1.09 to 6.53 | 9.53 to 12.2 | > 12.2 | 6.53 to 9.53 | > 12.2 | < 1.09
COc1ccc2c(c1)CCCN2c1ncnc(Nc2cc(OC)c(OC)c(OC)c2)n1 [Compound 631] | > 10.6 | > 10.6 | < 0.945 | < 0.945 | < 0.945 | 0.945 to 5.67 | < 0.945 | 0.945 to 5.67 | > 10.6 | 0.945 to 5.67
COc1cc(Nc2ncnc(Nc3cc(F)cc(C(F)(F)F)c3)n2)cc(OC)c1OC [Compound 632] | > 10.2 | > 10.2 | 0.91 to 5.46 | 7.97 to 10.2 | 0.91 to 5.46 | 0.91 to 5.46 | > 10.2 | 0.91 to 5.46 | > 10.2 | < 0.91
